# Measurements from publication PMC11478212, “Antitumoral and Antiproliferative Potential of Synthetic Derivatives of Scorpion Peptide IsCT1 in an Oral Cavity Squamous Carcinoma Model” (Molecules, 2024).
# Where “and” joins values, the source holds several entries; their conditions need not be identical. Equal values may be shown once. Entries after “also recorded” stand apart in the source; their conditions may differ. Read-outs that look alike come from different tables or passages of the source.
# Legend:
# SCC-25 cells = test: MTT cell viability; type: cell-based; conditions: treatment 24 and 48 h (time of IC50 not given), absorbance 540 nm, N/IC50 = no IC50 for the tested concentrations, no toxicity, read-out: IC50
# Method: (§1) Cell survival was assessed using an MTT assay. Tumor (SSC-9 and SSC-25) and normal cells (FN1 and J-774) were incubated in 96-well plates at a density of 10^5 cells/mL for 24 h. Subsequently, treatments were administered as described in Table 1 for 24 and 48 h. After the treatment period, the supernatant was aspirated and 100 μL of MTT at a concentration of 5 mg/mL (Calbiochem—Darmstadt, Germany) was added to the plate and incubated for 3 h at 37 °C with 5% CO2. Afterward, the content was removed and 200 μL of methanol was added to dissolve the formazan crystals. Absorbance was then measured at a wavelength of 540 nm using a microplate reader. The hemolysis assay was performed as previously reported.
# FN1 cells = test: MTT cell viability; type: cell-based; conditions: FN1 normal human fibroblasts, treatment 24 and 48 h (time of IC50 not given), absorbance 540 nm, N/IC50 = no IC50 for the tested concentrations, no toxicity
# Method: as §1
# SCC-9 cells = test: MTT cell viability; type: cell-based; conditions: treatment 24 and 48 h (time of IC50 not given), absorbance 540 nm, N/IC50 = no IC50 for the tested concentrations, no toxicity, read-out: IC50
# Method: as §1
# J774 cells = test: MTT cell viability; type: cell-based; conditions: J774 normal macrophages, treatment 24 and 48 h (time of IC50 not given), absorbance 540 nm, N/IC50 = no IC50 for the tested concentrations, no toxicity
# Method: as §1
# [1] = Resistance to degradation in 25% fetal bovine serum; type: in vitro ADME; conditions: 25% fetal bovine serum in water, 37 °C, HPLC peak area vs t = 0 h, triplicate
# Method: Figure 1 (a) Helical wheel projections of the IsCT1, AFPK-IsCT1, KKK-IsCT1, and IsCT-P peptides were generated using the Heliquest server (https://heliquest.ipmc.cnrs.fr/, accessed on 15 July 2024). In these projections, yellow, gray, and green circles represent hydrophobic amino acids, while blue and pink circles denote hydrophilic amino acids. (b) Resistance to degradation assays for all peptides were performed over 6 h in a solution containing 25% fetal bovine serum (FBS). These experiments were conducted in triplicate and aliquots were collected for analysis at 0, 0.5, 1, 2, 4, and 6 h of incubation. The aliquots were subsequently analyzed using high-performance liquid chromatography (HPLC) after each incubation period. The degradation kinetics of the peptides were determined by comparing the integrated peak area associated with the peptide at the start of the experiment (t = 0 h) with the integrated peak area at subsequent time points (t = 0.5, 1, 2, 4, 6 h). (c) The hemolytic activity of synthetic peptides analogous to IsCT1 was assessed on human erythrocytes within a concentration range of 0.13–128 μmol L^−1 in phosphate-buffered saline (PBS) (n = 3). A 1% solution of sodium dodecyl sulfate (SDS) in PBS served as a positive control, while PBS alone was used as a negative control. (d) A table summarizing the sequences, molecular weights, and physicochemical properties of the IsCT1, AFPK-IsCT1, and KKK-IsCT1 peptides. […]
# Stability assays were conducted using GIBCO (Waltham, MA, USA) fetal bovine serum diluted to 25% in water, as described by Torres et al.. Briefly, peptide solutions were added to the serum solution and maintained at 37 °C. The experiments were carried out in triplicate and samples were taken at 0, 0.5, 1, 2, 4, and 6 h post incubation. The degradation kinetics were monitored using liquid chromatography and the percentage of remaining peptides was calculated by integrating the peak area of the peptide.
# SCC-25 tumor cells = test: Mitochondrial potential by confocal microscopy (MitoRed/DAPI); type: cell-based; conditions: 24 h, IsCT-P and AC-AFPK-IsCT1 at IC50, others 100 µM, MitoRed, DAPI
# Method: (§2) Figure 5 Photomicrographs of tongue squamous cell carcinoma tumor cells (SCC-9 and SCC-25) and macrophages (J774), with mitochondria stained red (MitoRED) and nuclei stained blue (DAPI), analyzed using confocal laser microscopy. The indicated cells were treated at the IC50 values obtained for the IsCT-P and AC-AFPK-IsCT1 peptides and at a concentration of 100 µM for the other peptides for a period of 24 h.
# (§3) For the confocal microscopy ana.lysis, tumor and normal cells were cultured in 24-well plates containing round coverslips with RPMI and Leibovitz medium, respectively, supplemented with 10% FBS and incubated with 5% CO2 at 37 °C for 24 h. Samples from the control and treated groups were subjected to the process of removing the culture medium and washing with RPMI medium. A total of 200 nML^−1 of MitoRed (Sigma-Aldrich, USA) was then added and the cells were incubated for 1 h in the dark at 37 °C. After incubation, the cells were washed with PBS, incubated with MitoRed, and fixed with 4% paraformaldehyde for 30 min. The cells were then washed with PBS and incubated. A total of 10 µL of VECTASHIELD® antifade with DAPI (Vector Laboratories, Burlingame, CA, USA) was used on the slide to promote the sealing and marking of the nucleus. The slides were stored in a closed place until the day of reading. Coverslips were placed on slides for observation under a confocal laser fluorescence microscope (Fluoview™ 300) and images were documented and analyzed.
# SCC-9 tumor cells = test: as above; type: cell-based; conditions: 24 h, IsCT-P and AC-AFPK-IsCT1 at IC50, others 100 µM, MitoRed, DAPI
# Method: as §2, §3
Substance,IC50 (SCC-25 cells),IC50 (FN1 cells),IC50 (SCC-9 cells),IC50 (J774 cells),metabolised at 0.5 h ([1]; 30 min),change in mitochondrial electric potential (confocal) (SCC-25 tumor cells),change in mitochondrial electric potential (confocal) (SCC-9 tumor cells),IC50 (FN1 cells; read-out: IC50),"remaining at 1 h ([1]; 1 h, read-out: peptide remaining intact after 1 h)","remaining at 4 h ([1]; 4 h, read-out: peptide remaining intact after 4 h)"
Ac-ALGKFWPKIKSLF-NH2 [AC-AFPK-IsCT1],84.4 µM and 84.5 µM,did not exhibit cytotoxic effects; also recorded: N/IC50,90.5 µM,N/IC50,18%,promoted a reduction in the mitochondrial electric potential,promoted a reduction in the mitochondrial electric potential,,,
H-ILKKIWKPIKKLF-NH2 [IsCT-P],81.3 µM,,96.5 µM,N/IC50,,promoted a reduction in the mitochondrial electric potential,promoted a reduction in the mitochondrial electric potential,80.3 µM and 80.4 µM,70%,18%
